Experimental data: ChEMBL document CHEMBL5331134, “Identification of Brain-Penetrant ATP-Competitive mTOR Inhibitors for CNS Syndromes” (J Med Chem, 2023)
Values after ≈ are worked out from the molar mass of the structure shown.

Assays:
[1] = target: 3',5'-cyclic-AMP phosphodiesterase 4D (Homo sapiens, UniProt Q08499); test: Inhibition of PDE4D (unknown origin)
[2] = target: T1, Cytochrome P450 3A4 (Homo sapiens, UniProt P08684); test: Inhibition of CYP3A4 (unknown origin) assessed as Kobs; assay type: ADME
[3] = Solubility of compound at pH 6.8; assay type: physicochemical; conditions: buffer
[4] = target: Serine/threonine-protein kinase ATR (Homo sapiens, UniProt Q13535); test: Inhibition of ATR (unknown origin)-driven CHK1 phosphorylation
[5] = Efflux ratio of apparent permeability across basolateral to apical side over apical to basolateral side in MDCK-MDR1 cells; assay type: ADME, cell-based, Canis lupus familiaris; conditions: dog
[6] = Apparent permeability across basolateral to apical side in MDCK-MDR1 cells; assay type: ADME, cell-based, Canis lupus familiaris; conditions: dog
[7] = Apparent permeability across apical to basolateral side in MDCK-MDR1 cells; assay type: ADME, cell-based, Canis lupus familiaris; conditions: dog
[8] = target: T2, Serine/threonine-protein kinase mTOR (Mus musculus, UniProt Q9JLN9); test: Inhibition of mTOR in TSC1 knockout mouse MEF cells assessed as reduction in phosphorylated S6 level at serine 240/244 residues incubated for 2 hrs by Hoechst/Alexa Fluor 647 staining based analysis; assay type: cell-based
[9] = target: T2, Serine/threonine-protein kinase mTOR; test: Inhibition of mTOR in Tsc1 knockout mouse neurons assessed as reduction in phosphorylated S6 level incubated for 4 hrs by Hoechst staining based immunofluorescence analysis; assay type: cell-based, Neuron
[10] = target: Myosin light chain kinase, smooth muscle (Homo sapiens) (UniProt Q15746); test: Inhibition of MYLK (unknown origin) assessed as residual activity at 10 uM relative to control
[11] = target: Serine/threonine-protein kinase mTOR (Homo sapiens) (UniProt P42345); test: Inhibition of mTOR (unknown origin) assessed as residual activity at 10 uM relative to control
[12] = target: Dual specificity tyrosine-phosphorylation-regulated kinase 1A (Homo sapiens) (UniProt Q13627); test: Inhibition of DYRK1A (unknown origin) assessed as residual activity at 10 uM relative to control
[13] = Genotoxicity in human TK6 cells assessed as micronuclei formation in presence of S9 fraction measured after 20 hrs by micronucleus test; assay type: toxicity, subcellular; conditions: s9, 20 h
[14] = Metabolic stability in mouse liver microsomes assessed as intrinsic clearance at 1 uM incubated for 30 mins in presence of NADPH by LC-MS/MS analysis; assay type: ADME, Microsome; conditions: read-out: CLH
[15] = target: T1, Cytochrome P450 3A4; test: Inhibition of CYP3A4 (unknown origin); assay type: ADME
[16] = Genotoxicity in human TK6 cells assessed as micronuclei formation in presence of S9 fraction measured after 3 hrs by micronucleus test; assay type: toxicity, subcellular; conditions: s9, 3 h
[17] = target: CYP2D6 (Homo sapiens, UniProt P10635); test: Inhibition of CYP2D6 (unknown origin); assay type: ADME
[18] = Phototoxicity against mouse BALB/3T3 clone A31 cells assessed as photo-irradiation factor incubated for 1 hr followed by irradiated with 5 J/cm^2 of light dose measured after 24 hrs by neutral red uptake assay; assay type: toxicity, cell-based; conditions: balb/3t3 clone a31, 1 h
[19] = Genotoxicity in human TK6 cells assessed as micronuclei formation in absence of S9 fraction measured after 3 hrs by micronucleus test; assay type: toxicity, cell-based; conditions: tk6, 3 h
[20] = Genotoxicity in human TK6 cells assessed as micronuclei formation in absence of S9 fraction measured after 20 hrs by micronucleus test; assay type: toxicity, cell-based; conditions: tk6, 20 h
[21] = Metabolic stability in dog liver microsomes assessed as intrinsic clearance at 1 uM incubated for 30 mins in presence of NADPH by LC-MS/MS analysis; assay type: ADME, Canis lupus familiaris, Microsome; conditions: read-out: CLH
[22] = Genotoxicity in human TK6 cells assessed as micronuclei formation by micronucleus test; assay type: toxicity, cell-based
[23] = Metabolic stability in cynomolgus monkey liver microsomes assessed as intrinsic clearance at 1 uM incubated for 30 mins in presence of NADPH by LC-MS/MS analysis; assay type: ADME, Macaca fascicularis, Microsome; conditions: read-out: CLH
[24] = Metabolic stability in human liver microsomes assessed as intrinsic clearance at 1 uM incubated for 30 mins in presence of NADPH by LC-MS/MS analysis; assay type: ADME, Microsome; conditions: read-out: CLH
[25] = Phototoxicity against mouse BALB/3T3 clone A31 cells assessed as reduction in cell viability incubated for 1 hr followed by irradiated with 5 J/cm^2 of light dose measured after 24 hrs by neutral red uptake assay; assay type: toxicity, cell-based; conditions: balb/3t3 clone a31, 1 h
[26] = target: 1-phosphatidylinositol 3-phosphate 5-kinase (Homo sapiens) (UniProt Q9Y2I7); test: Inhibition of PIKfyve in human U2OS cells coexpressing GFP-tagged FoxO3alpha assessed as residual activity at 10 uM incubated for 2 to 24 hrs by Hoechst staining based analysis relative to control; assay type: cell-based; conditions: time 2-24 hrs
[27] = target: CYP2C9 (Homo sapiens, UniProt P11712); test: Inhibition of CYP2C9 (unknown origin); assay type: ADME
CYP2C9, sequence (P11712 whole entry): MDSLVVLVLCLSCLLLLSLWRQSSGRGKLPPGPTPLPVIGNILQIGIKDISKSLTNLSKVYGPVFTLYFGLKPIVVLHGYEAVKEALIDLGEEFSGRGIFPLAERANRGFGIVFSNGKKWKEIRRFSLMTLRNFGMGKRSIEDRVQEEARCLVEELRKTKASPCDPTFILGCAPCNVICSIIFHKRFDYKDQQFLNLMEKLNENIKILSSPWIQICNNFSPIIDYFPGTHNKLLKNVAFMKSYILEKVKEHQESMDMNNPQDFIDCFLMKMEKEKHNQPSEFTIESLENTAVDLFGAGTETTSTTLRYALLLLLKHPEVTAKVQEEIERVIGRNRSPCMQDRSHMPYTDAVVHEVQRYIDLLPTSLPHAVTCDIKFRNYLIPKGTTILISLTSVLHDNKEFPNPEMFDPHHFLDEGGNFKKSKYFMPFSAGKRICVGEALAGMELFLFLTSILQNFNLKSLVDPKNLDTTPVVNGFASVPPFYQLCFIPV

3',5'-cyclic-AMP phosphodiesterase 4D, sequence (Q08499 whole entry): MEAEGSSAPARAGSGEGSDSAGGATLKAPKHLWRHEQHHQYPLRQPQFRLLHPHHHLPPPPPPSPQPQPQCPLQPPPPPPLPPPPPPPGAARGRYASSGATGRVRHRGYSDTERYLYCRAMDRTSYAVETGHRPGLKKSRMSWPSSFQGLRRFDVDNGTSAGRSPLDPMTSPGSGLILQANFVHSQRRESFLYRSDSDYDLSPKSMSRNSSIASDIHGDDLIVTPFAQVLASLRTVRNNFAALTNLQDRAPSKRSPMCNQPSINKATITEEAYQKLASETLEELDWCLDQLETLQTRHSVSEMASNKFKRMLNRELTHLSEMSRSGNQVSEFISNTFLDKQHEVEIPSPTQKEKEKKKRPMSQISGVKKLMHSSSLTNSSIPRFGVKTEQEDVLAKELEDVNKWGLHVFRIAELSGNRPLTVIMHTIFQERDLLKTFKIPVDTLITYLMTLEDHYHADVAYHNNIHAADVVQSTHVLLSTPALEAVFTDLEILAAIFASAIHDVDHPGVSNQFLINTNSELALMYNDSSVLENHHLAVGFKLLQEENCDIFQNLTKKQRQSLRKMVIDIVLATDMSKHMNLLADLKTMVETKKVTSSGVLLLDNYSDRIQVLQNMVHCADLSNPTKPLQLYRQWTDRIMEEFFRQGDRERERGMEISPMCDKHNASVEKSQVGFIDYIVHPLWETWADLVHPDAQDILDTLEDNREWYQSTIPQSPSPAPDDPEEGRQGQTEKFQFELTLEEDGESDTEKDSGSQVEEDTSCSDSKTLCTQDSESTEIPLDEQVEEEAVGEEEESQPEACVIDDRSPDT
T1 sequence (P08684 whole entry): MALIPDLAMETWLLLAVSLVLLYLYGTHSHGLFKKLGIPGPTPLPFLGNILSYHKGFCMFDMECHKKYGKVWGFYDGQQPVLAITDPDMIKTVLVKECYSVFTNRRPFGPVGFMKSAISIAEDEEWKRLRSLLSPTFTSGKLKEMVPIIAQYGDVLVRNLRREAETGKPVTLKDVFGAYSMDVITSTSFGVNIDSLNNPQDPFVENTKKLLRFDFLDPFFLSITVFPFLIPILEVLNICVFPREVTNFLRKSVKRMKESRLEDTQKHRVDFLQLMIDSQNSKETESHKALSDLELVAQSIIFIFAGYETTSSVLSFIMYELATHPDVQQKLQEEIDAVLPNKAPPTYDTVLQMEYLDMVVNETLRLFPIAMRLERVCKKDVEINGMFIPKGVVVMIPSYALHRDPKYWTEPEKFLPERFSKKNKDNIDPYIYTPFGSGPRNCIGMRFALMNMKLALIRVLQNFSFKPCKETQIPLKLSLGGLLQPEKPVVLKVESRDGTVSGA
Serine/threonine-protein kinase ATR, sequence (Q13535 whole entry): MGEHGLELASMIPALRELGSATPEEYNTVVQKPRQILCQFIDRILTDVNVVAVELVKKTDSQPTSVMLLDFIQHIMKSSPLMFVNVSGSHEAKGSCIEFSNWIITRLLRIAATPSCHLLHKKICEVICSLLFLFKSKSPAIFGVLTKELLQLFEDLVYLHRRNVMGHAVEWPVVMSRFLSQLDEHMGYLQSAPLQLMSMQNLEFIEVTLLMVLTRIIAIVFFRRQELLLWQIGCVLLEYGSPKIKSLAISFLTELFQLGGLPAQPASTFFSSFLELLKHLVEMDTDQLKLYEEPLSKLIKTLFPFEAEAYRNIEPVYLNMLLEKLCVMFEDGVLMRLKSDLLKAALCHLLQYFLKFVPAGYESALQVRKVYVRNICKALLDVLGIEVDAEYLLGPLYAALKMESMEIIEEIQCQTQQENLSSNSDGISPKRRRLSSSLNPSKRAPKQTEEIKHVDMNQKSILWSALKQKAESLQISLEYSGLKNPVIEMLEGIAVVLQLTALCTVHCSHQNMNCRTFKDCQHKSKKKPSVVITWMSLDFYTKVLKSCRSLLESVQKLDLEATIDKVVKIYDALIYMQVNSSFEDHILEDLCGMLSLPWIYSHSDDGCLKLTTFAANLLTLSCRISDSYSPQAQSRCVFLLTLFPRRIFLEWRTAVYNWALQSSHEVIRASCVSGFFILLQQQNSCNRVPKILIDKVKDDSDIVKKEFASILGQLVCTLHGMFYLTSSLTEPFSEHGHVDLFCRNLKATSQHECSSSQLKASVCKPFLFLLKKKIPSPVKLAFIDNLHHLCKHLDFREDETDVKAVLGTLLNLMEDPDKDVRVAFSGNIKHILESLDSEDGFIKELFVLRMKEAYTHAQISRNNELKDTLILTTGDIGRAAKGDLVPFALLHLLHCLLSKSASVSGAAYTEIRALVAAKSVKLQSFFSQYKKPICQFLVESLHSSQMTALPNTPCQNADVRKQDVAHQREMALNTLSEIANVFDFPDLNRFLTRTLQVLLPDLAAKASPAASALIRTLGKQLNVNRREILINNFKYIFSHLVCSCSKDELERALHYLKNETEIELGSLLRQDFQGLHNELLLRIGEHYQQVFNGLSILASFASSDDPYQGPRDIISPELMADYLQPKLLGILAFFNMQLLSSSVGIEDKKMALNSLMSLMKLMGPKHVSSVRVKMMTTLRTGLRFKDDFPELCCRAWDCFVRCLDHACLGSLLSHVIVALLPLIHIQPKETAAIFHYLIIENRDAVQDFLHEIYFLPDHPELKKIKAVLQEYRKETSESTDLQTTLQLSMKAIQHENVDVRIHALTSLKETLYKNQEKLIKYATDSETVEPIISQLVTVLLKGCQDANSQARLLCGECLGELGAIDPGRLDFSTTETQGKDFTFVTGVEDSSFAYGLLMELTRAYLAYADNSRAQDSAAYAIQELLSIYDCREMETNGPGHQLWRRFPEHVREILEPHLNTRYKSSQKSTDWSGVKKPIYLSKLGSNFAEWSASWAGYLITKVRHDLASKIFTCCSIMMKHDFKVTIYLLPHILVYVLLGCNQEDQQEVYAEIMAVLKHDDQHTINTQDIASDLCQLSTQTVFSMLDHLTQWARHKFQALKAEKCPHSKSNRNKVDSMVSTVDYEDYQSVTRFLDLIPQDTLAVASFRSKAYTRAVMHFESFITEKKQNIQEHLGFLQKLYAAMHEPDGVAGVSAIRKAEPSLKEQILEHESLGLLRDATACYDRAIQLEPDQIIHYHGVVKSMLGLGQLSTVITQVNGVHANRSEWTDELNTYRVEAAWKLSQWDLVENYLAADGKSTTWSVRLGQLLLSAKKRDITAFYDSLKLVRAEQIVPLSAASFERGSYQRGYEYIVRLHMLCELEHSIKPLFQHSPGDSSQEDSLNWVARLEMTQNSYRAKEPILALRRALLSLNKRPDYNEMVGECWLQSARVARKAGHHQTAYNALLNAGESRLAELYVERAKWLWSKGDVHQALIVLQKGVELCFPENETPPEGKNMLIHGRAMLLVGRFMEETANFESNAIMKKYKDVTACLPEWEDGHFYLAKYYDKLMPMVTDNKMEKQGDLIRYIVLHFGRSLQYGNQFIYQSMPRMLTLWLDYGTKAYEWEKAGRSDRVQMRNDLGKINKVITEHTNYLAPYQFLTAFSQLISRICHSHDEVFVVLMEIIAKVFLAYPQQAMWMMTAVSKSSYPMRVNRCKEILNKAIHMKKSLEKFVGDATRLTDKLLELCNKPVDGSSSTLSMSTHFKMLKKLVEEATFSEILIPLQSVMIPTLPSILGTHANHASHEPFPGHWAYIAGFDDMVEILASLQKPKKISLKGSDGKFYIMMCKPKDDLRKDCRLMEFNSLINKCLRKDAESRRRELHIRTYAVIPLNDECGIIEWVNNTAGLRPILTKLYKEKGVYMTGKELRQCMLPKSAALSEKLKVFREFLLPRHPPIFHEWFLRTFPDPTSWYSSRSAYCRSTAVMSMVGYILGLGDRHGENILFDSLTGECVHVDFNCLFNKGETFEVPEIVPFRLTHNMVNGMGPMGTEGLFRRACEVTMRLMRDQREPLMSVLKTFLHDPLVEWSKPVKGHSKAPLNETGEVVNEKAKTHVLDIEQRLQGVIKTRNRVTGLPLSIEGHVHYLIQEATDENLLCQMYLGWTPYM
CYP2D6, sequence (P10635 whole entry): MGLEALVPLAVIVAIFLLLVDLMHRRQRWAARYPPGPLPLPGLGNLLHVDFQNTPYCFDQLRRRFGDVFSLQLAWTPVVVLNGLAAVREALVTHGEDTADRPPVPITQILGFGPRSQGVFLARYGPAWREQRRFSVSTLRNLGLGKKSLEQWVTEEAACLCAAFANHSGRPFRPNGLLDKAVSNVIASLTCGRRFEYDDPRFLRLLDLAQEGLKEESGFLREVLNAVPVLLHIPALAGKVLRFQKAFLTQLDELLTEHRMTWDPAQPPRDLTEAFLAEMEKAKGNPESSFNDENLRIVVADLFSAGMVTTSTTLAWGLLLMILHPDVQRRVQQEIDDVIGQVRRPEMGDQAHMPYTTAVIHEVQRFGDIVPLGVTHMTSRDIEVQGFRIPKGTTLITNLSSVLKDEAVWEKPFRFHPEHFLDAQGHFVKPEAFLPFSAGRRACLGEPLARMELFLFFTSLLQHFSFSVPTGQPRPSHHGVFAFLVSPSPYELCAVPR

IC50 [1]	Kobs [2]	solubility [3]	IC50 [4]	efflux ratio [5]	Papp B→A [6]	Papp A→B [7]	IC50 [8]	Structure (SMILES)	also measured
6 µM	0.004 min⁻¹	53 µg/mL (≈ 124 µM)	7.14 µM	0.61	15.5 ×10⁻⁶ cm/s	25.6 ×10⁻⁶ cm/s	–	C[C@@H]1COCCN1c1cc(N2CCOC[C@@H]2C)nc2[nH]c(-c3cc(O)ccc3F)nc12	–
11 µM	–	–	–	–	–	–	46 nM	C[C@@H]1COCCN1c1nc(N2CCOC[C@@H]2C)cc2[nH]c(-c3cc[nH]n3)nc12	–
0.042 µM	–	–	–	–	–	–	15 nM	C[C@@H]1COCCN1c1cc(N2CCOC[C@@H]2C)cc2sc(-c3cc[nH]n3)nc12	–
18 µM	0.004 min⁻¹	160 µg/mL (≈ 417 µM)	1.11 µM	2.52	40 ×10⁻⁶ cm/s	15.9 ×10⁻⁶ cm/s	7.7 nM	C[C@@H]1COCCN1c1cc(N2CCOC[C@@H]2C)nc2[nH]c(-c3cc[nH]n3)nc12	–
0.96 µM	–	–	–	–	–	–	96 nM	C[C@@H]1COCCN1c1nc(N2CCOC[C@@H]2C)cc2sc(-c3cc[nH]n3)nc12	–
4.9 µM	–	–	–	–	–	–	16 nM	C[C@@H]1COCCN1c1nc(N2CCOC[C@@H]2C)nc2[nH]c(-c3cc[nH]n3)nc12	–
16 µM	–	–	–	–	–	–	34 nM	C[C@@H]1COCCN1c1cc(N2CCOC[C@@H]2C)nc2[nH]c(-c3cc[nH]n3)cc12	–
9.2 µM	0.036 min⁻¹	< 2 µg/mL	2.25 µM	0.84	8.04 ×10⁻⁶ cm/s	9.57 ×10⁻⁶ cm/s	6.6 nM	C[C@@H]1COCCN1c1cc(N2C3CCC2COC3)nc2[nH]c(-c3ccccn3)nc12	–
–	–	–	–	–	–	–	–	CO[C@H]1C[C@@H]2CC[C@@H](C)[C@@](O)(O2)C(=O)C(=O)N2CCCC[C@H]2C(=O)O[C@H]([C@H](C)C[C@@H]2CC[C@@H](OCCO)[C@H](OC)C2)CC(=O)[C@H](C)/C=C(\C)[C@@H](O)[C@@H](OC)C(=O)[C@H](C)C[C@H](C)/C=C/C=C/C=C/1C [EVEROLIMUS]	IC50 [9]: 5 pM
–	0.006 min⁻¹	–	–	–	25.4 ×10⁻⁶ cm/s	27.4 ×10⁻⁶ cm/s	5 nM	C[C@@H]1COCCN1c1nc(N2CCOC[C@@H]2C)nc2sc(-c3cc[nH]n3)nc12	Activity [10]: 0.15%; Activity [11]: 1.3%; Activity [12]: 0.15%; Activity [13]: Toxic; microsomal CLint at 1 µM [14]: 22 µL/min/mg; IC50 [15]: 33.2 µM; Activity [16]: Toxic; IC50 [17]: > 50 µM; Activity [18]: 253; Activity [19]: Toxic; Activity [20]: Toxic; microsomal CLint at 1 µM [21]: 26 µL/min/mg; Activity [22]: Toxic; microsomal CLint at 1 µM [23]: 82 µL/min/mg; microsomal CLint at 1 µM [24]: 92 µL/min/mg; Activity [25]: Toxic; Activity [26]: 0.3%; IC50 [27]: > 50 µM
21 µM	0.021 min⁻¹	250 µg/mL (≈ 624 µM)	24 µM	0.66	8.24 ×10⁻⁶ cm/s	12.7 ×10⁻⁶ cm/s	–	C[C@@H]1COCCN1c1cc(N2CCOC[C@@H]2C)nc2[nH]c(-c3nccs3)nc12	–
